Consider four compounds from paper PMC9598883, “An Optimized Workflow for the Discovery of New Antimicrobial Compounds Targeting Bacterial RNA Polymerase Complex Formation” (Antibiotics, 2022).

≈ marks a conversion by molar mass, not a printed value.

Data set [1] concerns β′ subunit (RNAP). Details: method as in PMID 26764017, PMID 23751807. To be noted: cited from earlier work.
Data set [2] has as its system Saccharomyces cerevisiae (W303). Briefly: Yeast growth inhibition assay. The data set is classed as cell-based. To be noted: wild-type W303. An excerpt: (§1) To avoid the characterization of hit compounds lacking antibacterial activity, we subsequently tested the ability of the 18 ELISA-validated compounds to inhibit bacterial growth, using the previously identified indol-3-yl-urea derivative 4 as a reference. Two nonpathogenic bacteria were employed for this assay: the gram-positive B. subtilis (WB800N strain) and the gram-negative E. coli (DH10T1R strain). […] The remaining twelve compounds might have been unable to cross the bacterial membrane or were modified and/or extruded from the cell. […] This additional assay, which was conducted on a wild-type (W303) rather than on the hyperpermeable Δerg6 strain, is not part of our streamlined antibiotic discovery workflow and was only aimed at verifying the cytotoxicity prediction reliability of yBRET.
(§2) For growth inhibition assays, bacteria were grown to exponential phase (OD600 = 0.5–0.6) and then diluted 100-fold with LB. PMBN (2 μg/mL) for E. coli was added at this stage. Yeast strain W303-1A (leu2-3,112 trp1-1 can1-100 ura3-1 ade2-1 his3-11,15) was grown at 30 °C in YPD to an OD600 of 0.5. The growth of the bacterial (or yeast) cells was monitored for 8 h in the presence of the candidate compounds dissolved in DMSO (final concentration of 5%) or an equivalent amount of DMSO as a negative control (“vehicle”). Growth inhibition assays were conducted in triplicate in 96-well plates (Microtest Plate 96 Well, F, flat base, Sarstedt, Nümbrecht, North Rhine-Westphalia, Germany) by monitoring cell growth (OD600) every 30 min with a microplate reader (TriStar^2 LB 942; Berthold Technologies, Bad Wildbad, Baden-Württemberg, Germany) for bacteria and every 1 h for yeast.

Data set [3] addresses T1, β′–σ^70 PPI (GST-β′ aa 1–334 / His-tagged σ^70) (Escherichia coli, UniProt P0A8T7).
T1 construct: 50 nM GST-β′ (aa 1–334); made in house; host or cells: bacterial expression (pET28-b / pGEX4-T3 vectors)
In words: Competitive ELISA of β′–σ^70 interaction. The data set is classed as binding, E. coli. The note with it: for IC50: read-out: Binding Inhibition IC50 ± SD; for inhibition at 100 µM: fixed concentration of 100 μM, read-out: β′–σ70 binding inhibition, ELISA 100 μM (percentage inhibition ± SD). The protocol:
In this in vitro set-up, individual candidate molecules (each at 100 µM concentration) were incubated with β’ before the addition of σ^70 and assessment of interaction reconstitution with an antibody directed against the σ^70 fusion tag. Eighteen of the 28 yBRET-positive compounds were thus confirmed as true inhibitors of the β’–σ^70 PPI (i.e., they inhibited the interaction by at least 50%); their structures and percentage inhibition values are reported in Table S1.
The production of recombinant proteins, the standard ELISA, and the “reverse” ELISA were performed following the protocols described in Sartini et al.. The full-length sequence coding for E. coli σ^70 was cloned into a modified pET28-b in-frame with an N-terminal 6xHis tag-sequence and was expressed in LB medium for 3 h at 30 °C following addition of 1 mM isopropyl-β-D-thiogalactopyranoside (IPTG).
The RNAP β’ 1–334 aa. coding sequence was cloned into a modified pGEX4-T3 expression vector (Amersham Biosciences, Amersham, Buckinghamshire, England) and was expressed for 24 h at 20 °C under auto-induction conditions (Auto Induction Medium, AIM-LB broth base; ForMedium™, Swaffham, Norfolk, England). Due to the failure of affinity purification on a glutathione-Sepharose column, the unfractionated whole cell supernatant was used directly as a GST-tagged source for ELISA.
For the standard ELISA, His-tagged- σ^70 was diluted to 250 nM with PBS and 100 μL of the resulting solution was added to the wells of SpectraPlate-96 HB microtitre plates (PerkinElmer, Waltham, MA, USA). After an overnight incubation at 4 °C, the wells were washed with PBS and blocked at room temperature for 2 h with 400 μL of 1% (w/v) BSA dissolved in PBS. Subsequently, 100 μL of supernatant diluted in PBS containing 50 nM GST-β′ (aa 1–334) was incubated for 10 min at 37 °C with 2.5 μL of each compound dissolved in DMSO at different concentrations (or with 2.5 μL of DMSO). The addition first of the polyclonal rabbit anti-GST primary antibody (1:2000 in PBS) (Abcam, Cambridge, Cambridgeshire, England) and after incubation, of the horseradish peroxidase-conjugated goat anti-rabbit secondary antibody diluted 1:20,000 in PBS (Invitrogen™ by Life Technologies™, Carlsbad, CA, USA) allowed the detection of the interaction using the substrate for 2,2’-Azino-bis (3-Ethylbenzthiazoline-6-Sulphonic Acid) peroxidase (ABTS; SeraCare Life Sciences, Milford, MA, USA). The signal resulting from the oxidation of ABTS was determined by measuring the absorbance at 415 nm with a microplate reader (iMark™ Microplate Absorbance Reader; Bio-Rad, Hercules, CA, USA).
A general note: An ELISA detects its analyte on a solid surface through an enzyme-linked reagent.

The subject of data set [4] is B. subtilis (WB800N strain). Briefly: Bacterial growth inhibition assay, B. subtilis. To be noted: for inhibition at 100 µM: Bacillus subtilis, 8 h, read-out: Growth Inhibition at 100 μM (8 h) B. subtilis. The data set is classed as cell-based, Bacillus subtilis.
Source text: as §1
(§3) Growth inhibition tests and minimum inhibitory concentration (MIC) assay on the gram-positive B. subtilis WB800N strain (nprE aprE epr bpr mpr::ble nprB::bsr Δvpr wprA::hyg cm::neo; NeoR) (MoBiTec GmbH, Lotzestraße, Göttingen, Germany) and on the gram-negative nonpathogenic E. coli DH10 T1R strain (F-mcrA Δ(mrr-hsdRMS-mcrBC) Φ80lacZ ΔM15 ΔlacX74 recA1 endA1 araD139Δ(ara, leu)7697 galU galK λ-rpsL nupG) (Invitrogen, Waltham, MA, USA) were performed as described in Sartini et al..
as §2

The subject of data set [5] is E. coli DH10T1R. Briefly: MIC assay, E. coli. The data set is classed as cell-based, Escherichia coli. To be noted: in the presence of PMBN (2 μg/mL). How it is done: as §3
(§4) Antimicrobial activity was determined by means of the minimum inhibitory concentration (MIC) assay, according to the Clinical & Laboratory Standards Institute (CLSI) guidelines described in ([37]). The assays were performed in 96-well microplates in 20% MH broth in PBS. A 2.5 × 10^5 CFU/mL medium-phase bacterial suspension in 20% MH broth was used and the microplates were incubated at 37 °C for 24 h. […] The results were derived from at least three independent experiments conducted in duplicate.

In data set [6] the test system is E. coli (DH10T1R strain). In words: Bacterial growth inhibition assay, E. coli. To be noted: for inhibition at 100 µM: 8 h, in the presence of PMBN (2 μg/mL). The data set is classed as cell-based, Escherichia coli.
Source text: as §1, §3, §2

In data set [7] the test system is B. subtilis WB800N. Briefly: MIC assay, B. subtilis. The data set is classed as cell-based, Bacillus subtilis. To be noted: for MIC: Bacillus subtilis, WB800N. The protocol:
as §3, §4

Data set [8] deals with T2, E. coli RNAPc with recombinant σ^70 (holoenzyme) (Escherichia coli, UniProt P0A8T7).
T2 construct: purchased New England BioLabs
Briefly: Fluorescence-detected single-round in vitro transcription assay. The data set is classed as biochemical. The note with it: fluorescence-based assay.
Experimental: A single-round transcription assay was first performed at a fixed, 100 µM concentration.
A fluorescence-detected RNAP inhibition assay with the profluorescent substrate γ-[2′(2-benzothiazoyl)-6′-hydroxybenzothiazole)-ATP (γ-BBT-ATP, Jena Bioscience, Jena, Thuringia, Germany) was performed to verify the ability of the selected compounds to inhibit the specific transcription activity of bacterial RNA polymerase, using E. coli RNAPc (New England BioLabs, Ipswich, MA, USA) and recombinant His-tagged-σ^70 for holoenzyme reconstitution.
Two nM of a circular DNA template (pDSP) [38] were then added to a final volume of 7 µL and the resulting reaction mixture was incubated at 37 °C for 15 min. The pDSP template is a 6135 bp vector harboring two identical λpR promoters upstream of engineered, cytosine-lacking (C-less) DNA regions. When CTP is omitted from the reaction mixture, transcription reinitiation is prevented, and this allows for the single-round transcription of 24 nt and 70 nt long RNAs. […]
Ten µL of the reaction was transferred to a black 384-well plate (PE384fw_ProxiPlate) and fluorescence emission was read with Spark 10M, Tecan (Männedorf, canton of Zürich, Switzerland) (excitation wavelength 422 nm; emission wavelength 590 nm).

T1 sequence (P0A8T7 1-334): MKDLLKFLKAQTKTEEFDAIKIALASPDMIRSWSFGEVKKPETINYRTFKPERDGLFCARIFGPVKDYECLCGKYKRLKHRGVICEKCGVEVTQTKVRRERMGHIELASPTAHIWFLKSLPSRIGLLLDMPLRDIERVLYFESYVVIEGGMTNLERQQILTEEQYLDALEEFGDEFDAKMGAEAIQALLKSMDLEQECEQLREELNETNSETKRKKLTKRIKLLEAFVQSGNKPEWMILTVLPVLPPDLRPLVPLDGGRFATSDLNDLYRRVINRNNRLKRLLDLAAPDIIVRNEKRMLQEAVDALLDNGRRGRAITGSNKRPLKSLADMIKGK
T2 sequence (P0A8T7 whole entry): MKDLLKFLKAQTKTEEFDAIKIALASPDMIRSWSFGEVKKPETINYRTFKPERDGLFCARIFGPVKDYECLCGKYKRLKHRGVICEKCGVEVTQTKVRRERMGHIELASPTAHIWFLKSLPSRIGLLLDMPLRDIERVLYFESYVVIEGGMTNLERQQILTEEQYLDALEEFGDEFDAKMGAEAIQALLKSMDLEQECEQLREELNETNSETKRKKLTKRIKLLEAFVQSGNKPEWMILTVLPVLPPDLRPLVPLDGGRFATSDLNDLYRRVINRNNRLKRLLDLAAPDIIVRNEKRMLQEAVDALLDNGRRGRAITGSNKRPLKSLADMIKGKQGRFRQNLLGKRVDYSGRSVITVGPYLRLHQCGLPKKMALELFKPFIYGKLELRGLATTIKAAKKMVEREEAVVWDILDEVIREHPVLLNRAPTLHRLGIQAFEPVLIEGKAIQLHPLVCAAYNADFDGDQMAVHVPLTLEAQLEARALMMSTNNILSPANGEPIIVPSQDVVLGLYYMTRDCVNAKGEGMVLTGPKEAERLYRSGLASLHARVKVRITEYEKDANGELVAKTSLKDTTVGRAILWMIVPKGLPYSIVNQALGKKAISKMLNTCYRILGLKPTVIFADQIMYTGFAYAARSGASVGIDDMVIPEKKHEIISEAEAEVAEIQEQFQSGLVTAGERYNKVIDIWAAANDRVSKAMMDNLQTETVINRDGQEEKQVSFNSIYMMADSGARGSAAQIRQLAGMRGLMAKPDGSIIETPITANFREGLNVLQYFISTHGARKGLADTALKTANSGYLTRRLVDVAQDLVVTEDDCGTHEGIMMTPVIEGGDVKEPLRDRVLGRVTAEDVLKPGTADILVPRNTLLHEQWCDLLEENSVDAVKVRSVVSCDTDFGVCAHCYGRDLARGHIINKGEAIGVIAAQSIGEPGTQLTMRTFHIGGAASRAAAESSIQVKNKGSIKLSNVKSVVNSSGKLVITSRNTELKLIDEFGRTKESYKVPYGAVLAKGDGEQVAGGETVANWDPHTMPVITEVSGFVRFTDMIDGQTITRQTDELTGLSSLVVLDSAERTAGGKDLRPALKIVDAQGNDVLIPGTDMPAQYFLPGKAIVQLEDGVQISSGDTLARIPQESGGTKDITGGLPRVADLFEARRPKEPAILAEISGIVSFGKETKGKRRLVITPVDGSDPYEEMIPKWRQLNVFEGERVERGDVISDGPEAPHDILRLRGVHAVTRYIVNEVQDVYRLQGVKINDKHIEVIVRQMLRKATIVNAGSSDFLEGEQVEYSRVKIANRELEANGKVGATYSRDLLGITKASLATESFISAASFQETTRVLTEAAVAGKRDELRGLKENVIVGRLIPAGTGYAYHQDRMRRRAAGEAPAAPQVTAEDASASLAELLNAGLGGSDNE
T2 sequence (P0A8V2 whole entry partner): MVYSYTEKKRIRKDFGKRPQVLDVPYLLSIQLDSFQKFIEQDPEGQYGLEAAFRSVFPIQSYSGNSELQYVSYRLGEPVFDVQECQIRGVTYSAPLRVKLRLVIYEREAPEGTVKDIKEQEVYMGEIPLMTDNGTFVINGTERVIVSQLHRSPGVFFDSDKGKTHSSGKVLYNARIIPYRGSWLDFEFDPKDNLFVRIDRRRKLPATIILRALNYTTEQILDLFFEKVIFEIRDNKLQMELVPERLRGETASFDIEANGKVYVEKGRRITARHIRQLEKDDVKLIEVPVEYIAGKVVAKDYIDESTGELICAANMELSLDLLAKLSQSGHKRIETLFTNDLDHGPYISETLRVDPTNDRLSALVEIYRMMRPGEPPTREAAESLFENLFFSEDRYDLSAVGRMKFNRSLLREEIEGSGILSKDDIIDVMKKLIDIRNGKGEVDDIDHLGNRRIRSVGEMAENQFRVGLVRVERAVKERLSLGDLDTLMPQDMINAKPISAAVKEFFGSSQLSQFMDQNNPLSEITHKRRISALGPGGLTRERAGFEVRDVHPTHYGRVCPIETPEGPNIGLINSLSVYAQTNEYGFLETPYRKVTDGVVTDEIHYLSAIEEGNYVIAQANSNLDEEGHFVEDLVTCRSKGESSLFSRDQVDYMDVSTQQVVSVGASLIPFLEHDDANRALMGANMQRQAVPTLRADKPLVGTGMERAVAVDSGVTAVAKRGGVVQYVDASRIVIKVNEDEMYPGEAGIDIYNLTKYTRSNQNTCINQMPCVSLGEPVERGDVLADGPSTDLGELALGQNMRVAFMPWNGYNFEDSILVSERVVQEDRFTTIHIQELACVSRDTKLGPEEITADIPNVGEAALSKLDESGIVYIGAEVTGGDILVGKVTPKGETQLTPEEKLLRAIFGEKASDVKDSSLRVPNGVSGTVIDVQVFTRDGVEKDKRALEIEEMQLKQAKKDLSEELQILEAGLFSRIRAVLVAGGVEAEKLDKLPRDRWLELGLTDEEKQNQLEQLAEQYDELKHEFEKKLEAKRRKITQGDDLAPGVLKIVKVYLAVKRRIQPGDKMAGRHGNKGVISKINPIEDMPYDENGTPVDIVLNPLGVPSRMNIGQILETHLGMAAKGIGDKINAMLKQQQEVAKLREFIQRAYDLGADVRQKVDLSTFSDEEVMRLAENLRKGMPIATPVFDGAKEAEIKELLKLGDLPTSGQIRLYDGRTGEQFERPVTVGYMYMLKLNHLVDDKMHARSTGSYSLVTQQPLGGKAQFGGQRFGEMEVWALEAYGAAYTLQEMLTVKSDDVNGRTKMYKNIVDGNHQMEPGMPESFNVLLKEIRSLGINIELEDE
T2 sequence (P0A7Z4 whole entry partner): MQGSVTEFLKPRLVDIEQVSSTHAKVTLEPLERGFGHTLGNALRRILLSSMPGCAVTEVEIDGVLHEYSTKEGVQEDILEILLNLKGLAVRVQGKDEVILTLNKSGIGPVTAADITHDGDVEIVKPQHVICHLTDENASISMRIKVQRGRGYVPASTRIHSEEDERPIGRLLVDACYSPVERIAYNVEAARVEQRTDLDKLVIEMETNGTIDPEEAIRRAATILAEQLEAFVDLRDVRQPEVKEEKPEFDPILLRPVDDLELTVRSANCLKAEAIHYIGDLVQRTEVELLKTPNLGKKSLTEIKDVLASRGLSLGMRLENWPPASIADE
T2 sequence (P0A800 whole entry partner): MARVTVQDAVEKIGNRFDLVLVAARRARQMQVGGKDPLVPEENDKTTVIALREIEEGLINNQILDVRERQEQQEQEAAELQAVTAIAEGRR

In the case of `COc1cc(OC)c2c(-c3ccc(Cl)cc3)c[nH]c2c1C(=O)NNC(=O)c1c(OC)cc(OC)c2c(-c3ccc(Cl)cc3)c[nH]c12` [GKL003], in data set [1], the “Concentration interfering with in vitro transcription initiation” value is “nanomolar concentrations”.
As for `N#Cc1cc2cnccc2c2[nH]c3ncc(F)cc3c12` [Compound 7], in data set [2], the “Growth Inhibition at 100 μM (8 h) S. cerevisiae” value (shortened to “Growth Inhibition at 100 μM”) worked out at 7%. Further, in data set [3] (dose–response ELISA), the IC50 turned out to be 8.56 ± 1.82 µM. Further, the results for the inhibition at 100 µM in data set [3], in data set [4] and in data set [6] (Escherichia coli) were 86 ± 9%, 13% and 66%, respectively. Moreover, in data set [5], the “MIC E. coli” value was determined as 0.78 µM. Moreover, the “Duration of antibacterial activity, E. coli” value in data set [6] (50 µM) worked out at 4 h. In addition, in data set [6] (50 µM), the “E. coli growth inhibition over time” value is on record as “almost completely inhibited”. The inhibition at 10 µM in data set [6] (Escherichia coli, 10 µM, 8 h observation, with PMBN, read-out: E. coli growth inhibition at lowest concentration) amounted to 38%. Besides, the “MIC B. subtilis” value in data set [7] is “did not inhibit B. subtilis growth”. Also, the minimum inhibitory concentration (MIC) in data set [7] was > 100 µM.
`O=C(CSc1nc2ccccc2[nH]1)c1ccc2[nH]c3ncc(Cl)cc3c2c1` [Compound 19]: the “Growth Inhibition at 100 μM” value in data set [2] was determined as 0%. The “Fold less potent than reference compound 4 (binding inhibition IC50)” value in data set [3] (dose–response ELISA) is on record as 5 fold. Besides, the IC50 came to 40 ± 4.2 µM in data set [3] (dose–response ELISA) and 25.7 ± 1.85 µM in data set [8]. Moreover, the values for the inhibition at 100 µM in data set [3], in data set [4] and in data set [6] (Escherichia coli) were 94 ± 1%, 37% and 0%, respectively. Besides, the “B. subtilis growth inhibition over time” value in data set [4] (50 µM) is “almost completely inhibited”; in data set [4] (only at 100 µM), “significantly inhibited”. Besides, the “Duration of antibacterial activity, B. subtilis” value in data set [4] (50 µM) stood at 4 h. Further, the “MIC E. coli” value in data set [5] was >100 µM. Also, in data set [7], inhibition of growth (MIC) required 100 µM (≈ 39.3 µg/mL).
With `COc1ccc(-c2ccc(-c3oc4cc(OC(C)=O)ccc4c3OC(C)=O)cc2)cc1OC` [Compound 9], the “Growth Inhibition at 100 μM” value in data set [2] was found to be 0%. In addition, the IC50 was found to be 13.9 ± 1.86 µM in data set [3] (dose–response ELISA) and 71 ± 2.46 µM in data set [8]. Also, the inhibition at 100 µM was 100% in data set [3], 24% in data set [4] and 24% in data set [6] (Escherichia coli). The “B. subtilis growth inhibition” value in data set [4] (concentrations ≤ 100 µM) is on record as “failed to exert any appreciable inhibitory activity”. Besides, in data set [5], the “MIC E. coli” value is >100 µM. In data set [6] (concentrations ≤ 100 µM), the “E. coli growth inhibition” value is on record as “failed to exert any appreciable inhibitory activity”. The MIC in data set [7] is > 100 µM.

By IC50 is commonly meant the midpoint of a concentration-inhibition curve. Broadly, the MIC is the lowest concentration found to suppress growth. High values mean weaker potency, low ones greater potency.
